Reference: ChEMBL document CHEMBL4024712, “Synthesis, stability and mechanistic studies of potent anticryptococcal hexapeptides” (Eur J Med Chem, 2017)
In brackets after ≈: the same amount, converted by molar mass. Non-standard residues stand in square brackets, D forms with d. Residues, ends and D or L forms follow the SMILES beside them. His(τ-Bzl) = N[C@@H](Cc1cn(Cc2ccccc2)cn1)C(=O)O; Phe(4-Me) = Cc1ccc(C[C@H](N)C(=O)O)cc1; Bta = N[C@@H](Cc1csc2ccccc12)C(=O)O; Cha = N[C@@H](CC1CCCCC1)C(=O)O; Phg = N[C@H](C(=O)O)c1ccccc1; Orn = NCCC[C@H](N)C(=O)O

Columns and labels:
Staphylococcus aureus [1] = assay: Bactericidal activity against Staphylococcus aureus ATCC 29213 by CLSI method; type: functional
Vero = assay: Cytotoxicity against African green monkey Vero cells up to 10 ug/ml after 48 hrs by neutral red dye based assay; type: cell-based; settings: chlorocebus sabaeus
Nakaseomyces glabratus [2] = assay: Antifungal activity against Candida glabrata ATCC 90030 after 18 to 24 hrs by Alamar blue assay; type: functional
Staphylococcus aureus [3] = assay: Bactericidal activity against methicillin-resistant Staphylococcus aureus ATCC 33591 by CLSI method; type: functional
Cryptococcus neoformans [4] = assay: Fungicidal activity against Cryptococcus neoformans ATCC 90113 after 68 to 72 hrs by Alamar blue assay; type: functional
Staphylococcus aureus [5] = assay: Anti-bacterial activity against methicillin-resistant Staphylococcus aureus ATCC 33591 by CLSI method; type: functional; settings: Staphylococcus aureus, ATCC 33591
[6] = system: Mycobacterium intracellulare; assay: Anti-bacterial activity against Mycobacterium intracellulare ATCC 23068 after 68 to 72 hrs by Alamar blue assay; type: functional, cell-based; settings: for MIC: Mycobacterium intracellulare, ATCC 23068
Pichia kudriavzevii [7] = assay: Fungicidal activity against Candida krusei ATCC 6258 after 18 to 24 hrs by Alamar blue assay; type: functional
Nakaseomyces glabratus [8] = assay: Fungicidal activity against Candida glabrata ATCC 90030 after 18 to 24 hrs by Alamar blue assay; type: functional
Candida albicans [9] = assay: Antifungal activity against Candida albicans ATCC 90028 after 18 to 24 hrs by Alamar blue assay; type: functional; settings: for MIC: Candida albicans, ATCC 90028
Pichia kudriavzevii [10] = assay: Antifungal activity against Candida krusei ATCC 6258 after 18 to 24 hrs by Alamar blue assay; type: functional; settings: Pichia kudriavzevii, ATCC 6258
Aspergillus fumigatus [11] = assay: Fungicidal activity against Aspergillus fumigatus ATCC 90906 after 68 to 72 hrs by Alamar blue assay; type: functional
Escherichia coli [12] = assay: Bactericidal activity against Escherichia coli ATCC 35218 by CLSI method; type: functional
Aspergillus fumigatus [13] = assay: Antifungal activity against Aspergillus fumigatus ATCC 90906 after 68 to 72 hrs by Alamar blue assay; type: functional
Staphylococcus aureus [14] = assay: Anti-bacterial activity against Staphylococcus aureus ATCC 29213 by CLSI method; type: functional; settings: Staphylococcus aureus, ATCC 29213
Escherichia coli [15] = assay: Anti-bacterial activity against Escherichia coli ATCC 35218 by CLSI method; type: functional
Cryptococcus neoformans [16] = assay: Antifungal activity against Cryptococcus neoformans ATCC 90113 after 68 to 72 hrs by Alamar blue assay; type: functional
Candida albicans [17] = assay: Fungicidal activity against Candida albicans ATCC 90028 after 18 to 24 hrs by Alamar blue assay; type: functional
Pseudomonas aeruginosa = assay: Anti-bacterial activity against Pseudomonas aeruginosa ATCC 27853 by CLSI method; type: functional
[18] = system: Mycobacterium intracellulare; assay: Bactericidal activity against Mycobacterium intracellulare ATCC 23068 after 68 to 72 hrs by Alamar blue assay; type: functional
[19] = Nakaseomyces glabratus, ATCC 90030
[20] = Aspergillus fumigatus, ATCC 90906

## NCCC[C@H](N)C(=O)N[C@H](Cc1c[nH]c2ccccc12)C(=O)N[C@@H](CC1CCCCC1)C(=O)N[C@@H](Cc1csc2ccccc12)C(=O)N[C@H](Cc1ccccc1)C(=O)N[C@@H](Cc1cn(Cc2ccccc2)cn1)C(N)=O (H-[Orn][dW][Cha][Bta][dF][His(τ-Bzl)]-NH2)
Staphylococcus aureus [1]
  MBC: 10 µg/mL (≈ 9.54 µM)
Vero
  Activity: Non-Toxic
Nakaseomyces glabratus [2]; [19]
  MIC: 10 µg/mL (≈ 9.54 µM)
Staphylococcus aureus [3]
  MBC: 20 µg/mL (≈ 19.1 µM)
Cryptococcus neoformans [4]
  MFC: 1.25 µg/mL (≈ 1.19 µM)
Staphylococcus aureus [5]
  MIC: 10 µg/mL (≈ 9.54 µM)
[6]
  IC50: Not Active
Pichia kudriavzevii [7]
  MFC: 10 µg/mL (≈ 9.54 µM)
Nakaseomyces glabratus [8]
  MFC: 10 µg/mL (≈ 9.54 µM)
Candida albicans [9]
  MIC: 10 µg/mL (≈ 9.54 µM)
Pichia kudriavzevii [10]
  MIC: 10 µg/mL (≈ 9.54 µM)
Pichia kudriavzevii [10]; read-out: IC50
  IC50: 6.51 µg/mL (≈ 6.21 µM)
Aspergillus fumigatus [11]
  MFC: 10 µg/mL (≈ 9.54 µM)
Escherichia coli [12]
  MBC: 20 µg/mL (≈ 19.1 µM)
Aspergillus fumigatus [13]; [20]
  MIC: 10 µg/mL (≈ 9.54 µM)

## NCCC[C@H](N)C(=O)N[C@H](Cc1c[nH]c2ccccc12)C(=O)N[C@@H](CC1CCCCC1)C(=O)N[C@@H](CC1CCCCC1)C(=O)N[C@H](Cc1ccccc1)C(=O)N[C@@H](Cc1cn(Cc2ccccc2)cn1)C(N)=O (H-[Orn][dW][Cha][Cha][dF][His(τ-Bzl)]-NH2)
Staphylococcus aureus [14]
  MIC: 10 µg/mL (≈ 10 µM)
Vero
  Activity: Non-Toxic
Escherichia coli [15]; Escherichia coli, ATCC 35218
  MIC: 20 µg/mL (≈ 20 µM)
Escherichia coli [15]; Escherichia coli, ATCC 35218, read-out: IC50
  IC50: 10 µg/mL (≈ 10 µM)
Nakaseomyces glabratus [2]
  IC50: Not Active
Staphylococcus aureus [3]
  MBC: 20 µg/mL (≈ 20 µM)
Pichia kudriavzevii [7]
  MFC: 10 µg/mL (≈ 10 µM)
Candida albicans [9]
  MIC: 10 µg/mL (≈ 10 µM)
Cryptococcus neoformans [16]
  MIC: 1.25 µg/mL (≈ 1.25 µM)
Pichia kudriavzevii [10]
  MIC: 10 µg/mL (≈ 10 µM)
Candida albicans [17]
  MFC: 10 µg/mL (≈ 10 µM)
Pseudomonas aeruginosa
  IC50: Not Active
Aspergillus fumigatus [11]
  MFC: 20 µg/mL (≈ 20 µM)
Escherichia coli [12]
  MBC: 20 µg/mL (≈ 20 µM)
Aspergillus fumigatus [13]; [20]
  MIC: 20 µg/mL (≈ 20 µM)

## NCCC[C@H](N)C(=O)N[C@H](Cc1c[nH]c2ccccc12)C(=O)N[C@@H](CC1CCCCC1)C(=O)N[C@H](C(=O)N[C@H](Cc1ccccc1)C(=O)N[C@@H](Cc1cn(Cc2ccccc2)cn1)C(N)=O)c1ccccc1 (H-[Orn][dW][Cha][Phg][dF][His(τ-Bzl)]-NH2)
Staphylococcus aureus [1]
  MBC: 20 µg/mL (≈ 20.4 µM)
Staphylococcus aureus [14]
  MIC: 20 µg/mL (≈ 20.4 µM)
[18]
  MBC: 10 µg/mL (≈ 10.2 µM)
Vero
  Activity: Non-Toxic
Nakaseomyces glabratus [2]
  IC50: Not Active
Staphylococcus aureus [3]
  MBC: 20 µg/mL (≈ 20.4 µM)
Staphylococcus aureus [5]
  MIC: 20 µg/mL (≈ 20.4 µM)
Pichia kudriavzevii [7]
  MFC: 10 µg/mL (≈ 10.2 µM)
Candida albicans [9]
  MIC: 20 µg/mL (≈ 20.4 µM)
Pichia kudriavzevii [10]
  MIC: 10 µg/mL (≈ 10.2 µM)
Pseudomonas aeruginosa
  IC50: Not Active
Aspergillus fumigatus [13]
  IC50: Not Active

## CC[C@@H](C)[C@@H](NC(=O)[C@H](CC1CCCCC1)NC(=O)[C@@H](Cc1c[nH]c2ccccc12)NC(=O)[C@@H](N)CCCN)C(=O)N[C@H](Cc1ccccc1)C(=O)N[C@@H](Cc1cn(Cc2ccccc2)cn1)C(N)=O (H-[Orn][dW][Cha][dI][dF][His(τ-Bzl)]-NH2)
Staphylococcus aureus [1]
  MBC: 20 µg/mL (≈ 20.9 µM)
Staphylococcus aureus [14]
  MIC: 20 µg/mL (≈ 20.9 µM)
[18]
  MBC: 20 µg/mL (≈ 20.9 µM)
Escherichia coli [15]; Escherichia coli, ATCC 35218
  MIC: 20 µg/mL (≈ 20.9 µM)
Cryptococcus neoformans [4]
  MFC: 2.5 µg/mL (≈ 2.61 µM)
[6]
  MIC: 20 µg/mL (≈ 20.9 µM)
Pichia kudriavzevii [7]
  MFC: 10 µg/mL (≈ 10.4 µM)
Candida albicans [9]
  MIC: 20 µg/mL (≈ 20.9 µM)
Pichia kudriavzevii [10]
  MIC: 10 µg/mL (≈ 10.4 µM)
Escherichia coli [12]
  MBC: 20 µg/mL (≈ 20.9 µM)

## CC(C)[C@@H](NC(=O)[C@H](CC1CCCCC1)NC(=O)[C@@H](Cc1c[nH]c2ccccc12)NC(=O)[C@@H](N)CCCN)C(=O)N[C@H](Cc1ccccc1)C(=O)N[C@@H](Cc1cn(Cc2ccccc2)cn1)C(N)=O (H-[Orn][dW][Cha][dV][dF][His(τ-Bzl)]-NH2)
Vero
  Activity: Non-Toxic
Escherichia coli [15]
  IC50: Not Active
Nakaseomyces glabratus [2]
  IC50: Not Active
[6]
  MIC: 20 µg/mL (≈ 21.2 µM)
Pichia kudriavzevii [7]
  MFC: 20 µg/mL (≈ 21.2 µM)
Candida albicans [9]
  MIC: 20 µg/mL (≈ 21.2 µM)
Cryptococcus neoformans [16]
  MIC: 1.25 µg/mL (≈ 1.32 µM)
Pichia kudriavzevii [10]
  MIC: 20 µg/mL (≈ 21.2 µM)
Candida albicans [17]
  MFC: 20 µg/mL (≈ 21.2 µM)
Pseudomonas aeruginosa
  IC50: Not Active
Aspergillus fumigatus [13]
  IC50: Not Active

## Cc1ccc(C[C@H](NC(=O)[C@@H](Cc2ccccc2)NC(=O)[C@@H](Cc2c[nH]c3ccccc23)NC(=O)[C@H](N)CCCNC(=N)N)C(=O)N[C@H](Cc2ccccc2)C(=O)N[C@@H](Cc2cn(Cc3ccccc3)cn2)C(N)=O)cc1 (H-[dR][dW][dF][Phe(4-Me)][dF][His(τ-Bzl)]-NH2)
Staphylococcus aureus [1]
  MBC: 20 µg/mL (≈ 19.2 µM)
Staphylococcus aureus [14]
  MIC: 20 µg/mL (≈ 19.2 µM)
Vero
  Activity: Non-Toxic
Escherichia coli [15]; Escherichia coli, ATCC 35218
  MIC: 20 µg/mL (≈ 19.2 µM)
Nakaseomyces glabratus [2]
  IC50: Not Active
Staphylococcus aureus [3]
  MBC: 20 µg/mL (≈ 19.2 µM)
Cryptococcus neoformans [4]
  MFC: 2.5 µg/mL (≈ 2.4 µM)
Staphylococcus aureus [5]
  MIC: 20 µg/mL (≈ 19.2 µM)
[6]
  IC50: Not Active
Pichia kudriavzevii [7]
  MFC: 20 µg/mL (≈ 19.2 µM)
Candida albicans [9]
  IC50: Not Active
Pichia kudriavzevii [10]
  MIC: 20 µg/mL (≈ 19.2 µM)
Pseudomonas aeruginosa
  IC50: Not Active
Escherichia coli [12]
  MBC: 20 µg/mL (≈ 19.2 µM)
Aspergillus fumigatus [13]
  IC50: Not Active

## C[C@@H]1[C@H](O)[C@@H](C)/C=C/C=C/C=C/C=C/C=C/C=C/C=C/[C@H](O[C@@H]2O[C@H](C)[C@@H](O)[C@H](N)[C@@H]2O)C[C@@H]2O[C@](O)(C[C@@H](O)C[C@@H](O)[C@H](O)CC[C@@H](O)C[C@@H](O)CC(=O)O[C@H]1C)C[C@H](O)[C@H]2C(=O)O [AMPHOTERICIN B]
Nakaseomyces glabratus [2]; [19]
  MIC: 0.63 µg/mL (≈ 0.682 µM)
Nakaseomyces glabratus [2]; Nakaseomyces glabratus, ATCC 90030, read-out: IC50
  IC50: 0.34 µg/mL (≈ 0.368 µM)
Aspergillus fumigatus [11]
  MFC: 5 µg/mL (≈ 5.41 µM)
Aspergillus fumigatus [13]; Aspergillus fumigatus, ATCC 90906, read-out: IC50
  IC50: 1.2 µg/mL (≈ 1.3 µM)
